The record followed here is ChEMBL document CHEMBL1201862, “PubChem BioAssay data set” (2004).

Among the test systems are OVCAR-4; SK-MEL-5; HCT-15; A498; SF-295; OVCAR-3; SF-268; COLO 205; IGROV-1; UACC-62; U-251; SK-MEL-28; NCI-H460; OVCAR-5; SK-MEL-2; K562; RPMI-8226; MOLT-4; CCRF-CEM; HOP-62.
Common to all, as to assay: NCI tumour cell line growth inhibition, 48 h

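All cell lines were grown in 96-well plates and treated with compound for 48 hours. Abbreviation: GI50, concentration required for 50% inhibition of growth.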 Calls of active or inactive are those of the source. Rule as the data show it: active = GI50 up to about 1.1 µM and inactive = higher.

As for `O=C(O)C1CCC(=O)N1C(=O)COc1cc(Cl)c(Cl)cc1Cl` (stereo not given), the GI50 in the test with OVCAR-4 is > 100 µM (inactive); with SK-MEL-5, > 100 µM (inactive); in the test on HCT-15, over 100 µM; in the test on A498, > 100 µM (inactive); in the test on SF-295, > 100 µM (inactive); in the test on OVCAR-3, > 100 µM (inactive). Further, the GI50 in the test with SF-268, with COLO 205, with IGROV-1, in the test on UACC-62, with U-251 and with SK-MEL-28 was > 100 µM (inactive) each time. Moreover, the GI50 with NCI-H460 and in the test on OVCAR-5 was > 100 µM (inactive) each time.

Take `CCOC(=O)C(C(=O)OCC)c1cc(-c2cc3ccccc3o2)oc(=O)c1C#N`: the GI50 with OVCAR-4 was 26.5 µM (inactive); in the test on SK-MEL-5, 32.5 µM (inactive); with HCT-15, 19.1 µM; in the test with A498 it was 25.3 µM (inactive); with SF-295, 22.2 µM (inactive); in the test on SF-268, 34.9 µM (inactive). Moreover, the GI50 with COLO 205 was 20.5 µM (inactive); in the test on IGROV-1, 24.9 µM (inactive); with SK-MEL-2, 19.8 µM (inactive); with K562, 29 µM (inactive); in the test on RPMI-8226, 35.6 µM (inactive); with U-251 it was 16.2 µM (inactive). In addition, the GI50 in the test with MOLT-4 was 21.6 µM (inactive); in the test on CCRF-CEM it was 29.6 µM (inactive); in the test with SK-MEL-28 it was 25.1 µM (inactive); in the test with NCI-H460, 30.2 µM (inactive); with OVCAR-5 it was 18.5 µM (inactive).

For `N#Cc1ccccc1NC(=O)C(=O)C(C(=O)c1ccccc1F)C1OC(=O)c2ccccc21` (stereo not given), the GI50 was 65 µM (inactive) in the test on OVCAR-4; 89.3 µM (inactive) in the test with SK-MEL-5; 30.1 µM in the test on HCT-15; > 100 µM (inactive) in the test with A498; 55.1 µM (inactive) with SF-295; 40.1 µM (inactive) in the test with SF-268. For the same compound, the GI50 in the test on COLO 205 was 37.7 µM (inactive); in the test on IGROV-1 it was 86.1 µM (inactive); in the test with SK-MEL-2, 24.1 µM (inactive); in the test on K562, 36.7 µM (inactive); with RPMI-8226, 25 µM (inactive); with HOP-62 it was 66.8 µM (inactive). The GI50 with UACC-62 is 41 µM (inactive); with U-251, 15 µM (inactive); in the test on MOLT-4, 25 µM (inactive); with CCRF-CEM, 15.1 µM (inactive); in the test on SK-MEL-28, 39.4 µM (inactive); in the test with NCI-H460, 41.1 µM (inactive). Moreover, the GI50 in the test on OVCAR-5 was 65.6 µM (inactive).

On to `Clc1ccccc1/C=C/c1cscn1`, for which the GI50 in the test on OVCAR-4 was > 100 µM (inactive); in the test on HCT-15, over 100 µM; with A498, > 100 µM (inactive); with OVCAR-3, > 100 µM (inactive); in the test with SF-268 it was > 100 µM (inactive); with SK-MEL-2, > 100 µM (inactive). In addition, the GI50 with K562, in the test with RPMI-8226, in the test with HOP-62, in the test on UACC-62, in the test on U-251 and in the test on MOLT-4 was > 100 µM (inactive) in each case. The GI50 in the test with CCRF-CEM, in the test on SK-MEL-28, in the test with NCI-H460 and in the test with OVCAR-5 was > 100 µM (inactive) each time.

In the case of `Cc1cccc(C(O)c2cccnc2)c1O` (stereo not given), the GI50 in the test on SK-MEL-5 is 76.4 µM (inactive); in the test with HCT-15, over 100 µM; in the test with SF-295 it was > 100 µM (inactive); with OVCAR-3, > 100 µM (inactive); in the test on SF-268, > 100 µM (inactive); in the test on COLO 205, > 100 µM (inactive). Besides, the GI50 with IGROV-1 is > 100 µM (inactive); in the test on K562 it was > 100 µM (inactive); with RPMI-8226 it was > 100 µM (inactive); in the test with HOP-62, > 100 µM (inactive); with UACC-62 it was 35.7 µM (inactive); in the test on U-251 it was > 100 µM (inactive). Also, the GI50 with MOLT-4 was > 100 µM (inactive); in the test on CCRF-CEM, > 100 µM (inactive); in the test with SK-MEL-28, > 100 µM (inactive); in the test with NCI-H460, > 100 µM (inactive); with OVCAR-5, 39.2 µM (inactive).

With `CC(C)=CCC(OC(=O)C=C(C)C)c1cc(O)c2c(c1O)C(=O)C=CC2=O` (stereo not given), the GI50 is 0.78 µM (active) in the test with OVCAR-4; 0.883 µM (active) in the test with SK-MEL-5; 0.398 µM in the test with HCT-15; 2.62 µM (inactive) in the test with A498; 2.95 µM (inactive) in the test with SF-295; 0.839 µM (active) in the test on OVCAR-3. The GI50 in the test with SF-268 was 1.39 µM (inactive); in the test on COLO 205 it was 0.382 µM (active); in the test on IGROV-1 it was 2.04 µM (inactive); with SK-MEL-2 it was 2.01 µM (inactive); in the test on K562 it was 0.27 µM (active); in the test on RPMI-8226 it was 0.171 µM (active). The GI50 was 12.8 µM (inactive) in the test on HOP-62; 0.783 µM (active) with UACC-62; 3.08 µM (inactive) in the test on U-251; 0.0208 µM (active) in the test on CCRF-CEM; 0.853 µM (active) with SK-MEL-28; 2.75 µM (inactive) in the test on NCI-H460. Moreover, the GI50 with OVCAR-5 was 3.89 µM (inactive).

With `O=C(c1ccccc1)C1C(c2ccccc2)N1S(=O)(=O)c1ccccc1` (stereo not given), the GI50 in the test with OVCAR-4 was > 100 µM (inactive); in the test on SK-MEL-5 it was > 100 µM (inactive); with HCT-15, over 100 µM; with SF-295, > 100 µM (inactive); in the test on OVCAR-3, > 100 µM (inactive); with SF-268, > 100 µM (inactive). In addition, the GI50 in the test on COLO 205, in the test with IGROV-1, in the test with SK-MEL-2, in the test with K562, in the test on RPMI-8226 and in the test with HOP-62 was > 100 µM (inactive) in each case. The GI50 with UACC-62, with U-251, in the test with MOLT-4, in the test with CCRF-CEM, in the test with SK-MEL-28 and with OVCAR-5 was > 100 µM (inactive) each time.

Regarding `Nc1nnc2ccc(Cl)cc2[n+]1[O-]`, the GI50 is 31 µM (inactive) in the test with SK-MEL-5; 36.2 µM in the test with HCT-15; 68.5 µM (inactive) in the test on A498; > 100 µM (inactive) in the test on SF-295; 38 µM (inactive) in the test with SF-268; 24.4 µM (inactive) with COLO 205. In addition, the GI50 with IGROV-1 was 31.8 µM (inactive); with SK-MEL-2, 49.3 µM (inactive); in the test with K562, 21.8 µM (inactive); in the test on RPMI-8226, > 100 µM (inactive); in the test on HOP-62, > 100 µM (inactive); with UACC-62 it was 49 µM (inactive). For the same compound, the GI50 with U-251 is > 100 µM (inactive); in the test with MOLT-4, 35.1 µM (inactive); in the test with CCRF-CEM, 29.6 µM (inactive); in the test with SK-MEL-28, 62.5 µM (inactive); in the test with OVCAR-5, > 100 µM (inactive).

As to `Clc1nc2c(N3CCCC3)nc(N3CCNCC3)nc2[nH]1`, the GI50 in the test with OVCAR-4 is 18.5 µM (inactive); with SK-MEL-5, 15.1 µM (inactive); in the test with HCT-15 it was 18.9 µM; with SF-295, 18.7 µM (inactive); in the test on OVCAR-3, 18 µM (inactive); in the test on SF-268, 19.2 µM (inactive). The GI50 was 16.4 µM (inactive) in the test with COLO 205; 17.9 µM (inactive) in the test on IGROV-1; 18.4 µM (inactive) in the test on SK-MEL-2; 23.1 µM (inactive) in the test with K562; 21.3 µM (inactive) in the test on RPMI-8226; 20 µM (inactive) with HOP-62. The GI50 is 17.4 µM (inactive) with UACC-62; 17.2 µM (inactive) in the test on U-251; 20.9 µM (inactive) in the test with MOLT-4; 19.4 µM (inactive) in the test on CCRF-CEM; 22.3 µM (inactive) in the test with SK-MEL-28; 17.6 µM (inactive) in the test with NCI-H460. For the same compound, the GI50 in the test with OVCAR-5 is 19.3 µM (inactive).

With `O=c1c(-c2ccccc2)c(SCCN2CCCCCC2)n(-c2ccccc2)c(=S)n1-c1ccccc1`, the GI50 in the test with OVCAR-4 is 15.5 µM (inactive); in the test with SK-MEL-5, 23.2 µM (inactive); in the test on HCT-15, 51.3 µM; with A498, 19.7 µM (inactive); in the test with SF-295, 83.9 µM (inactive); in the test with OVCAR-3, 32.7 µM (inactive). Further, the GI50 in the test on COLO 205 was 30.4 µM (inactive); in the test on IGROV-1, 45.8 µM (inactive); in the test with K562, 19.6 µM (inactive); with RPMI-8226, 20.7 µM (inactive); with HOP-62 it was 46.6 µM (inactive); in the test on UACC-62, 48.9 µM (inactive). Further, the GI50 with MOLT-4 was 13.4 µM (inactive); in the test on CCRF-CEM, 8.45 µM (inactive); with SK-MEL-28, > 100 µM (inactive); with NCI-H460, 46.8 µM (inactive); in the test on OVCAR-5, 21.1 µM (inactive).

For `CC1=CC[C@H](C)C(C)(C)C1/C=C/C(C)=C/CC[C@@]1(CO)[C@H](CCCO)/C(=C(/C)C=O)CC[C@]1(C)O` (stereo not given in full), the GI50 is 0.513 µM (active) with SK-MEL-5; 7.64 µM in the test on HCT-15; 1.23 µM (inactive) in the test with SF-295; 7.46 µM (inactive) in the test on SF-268; 1.05 µM (active) in the test on COLO 205; 11.7 µM (inactive) in the test on IGROV-1. Besides, the GI50 with SK-MEL-2 is 15.8 µM (inactive); with K562 it was 1.31 µM (inactive); with U-251 it was 2.86 µM (inactive); in the test with MOLT-4 it was 1.57 µM (inactive); in the test with CCRF-CEM, 4.21 µM (inactive); in the test with SK-MEL-28, 11.4 µM (inactive). Besides, the GI50 was 1.11 µM (active) with NCI-H460 and 23.6 µM (inactive) with OVCAR-5.

As for `Cc1ccc(C(=O)Nc2ccc(S(=O)(=O)O)c3cc(S(=O)(=O)O)cc(S(=O)(=O)O)c23)cc1N`, the GI50 in the test with OVCAR-4 is > 100 µM (inactive); in the test on SK-MEL-5 it was > 100 µM (inactive); in the test on HCT-15, over 100 µM; in the test with A498 it was > 100 µM (inactive); in the test on SF-295 it was 2.75 µM (inactive); with OVCAR-3, > 100 µM (inactive). Moreover, the GI50 with SF-268, in the test on COLO 205, in the test on IGROV-1, with SK-MEL-2, in the test on K562 and in the test on HOP-62 was > 100 µM (inactive) in each case. The GI50 in the test on UACC-62, in the test on MOLT-4, in the test with CCRF-CEM, in the test with SK-MEL-28, in the test with NCI-H460 and in the test on OVCAR-5 was > 100 µM (inactive) each time.
